The supplement of paper PMC10307832

Assays:
Assay in all cases: relative viability (nuclei count vs DMSO), 5 days (fraction); higher = more cells survive
NCI-H1666 = test system: NCI-H1666
Outline: (§1)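 Each reported value is a median over duplicate plates. It expresses relative viability: treated-well nuclei count divided by vehicle-well nuclei count. Lung cancer cell lines in 1536-well plates were dosed by pin tool a day after seeding, alone with one drug or with a fixed anchor-drug dose plus five library-drug doses (not always all listed) in √10 steps, and nuclei were counted after 5 days.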

NCI-H441 = test system: NCI-H441
Outline: as §1

LK-2 = test system: LK-2
Outline: as §1

EKVX = test system: EKVX
Outline: as §1

NCI-H1755 = test system: NCI-H1755
Outline: as §1

NCI-H23 = test system: NCI-H23
Outline: as §1

SK-MES-1 = test system: SK-MES-1
Outline: as §1

NCI-H596 = test system: NCI-H596
Outline: as §1

SW 900 = test system: SW 900
Outline: as §1

NCI-H1975 = test system: NCI-H1975
Outline: as §1

PC-3 [JPC-3] = test system: PC-3 [JPC-3]
Outline: as §1

EMC-BAC-2 = test system: EMC-BAC-2
Outline: as §1

NCI-H1563 = test system: NCI-H1563
Outline: as §1

ChaGo-K-1 = test system: ChaGo-K-1
Outline: as §1

H3255 = test system: H3255
Outline: as §1

LOU-NH91 = test system: LOU-NH91
Outline: as §1

NCI-H520 = test system: NCI-H520
Outline: as §1

A-427 = test system: A-427
Outline: as §1

COR-L 105 = test system: COR-L 105
Outline: as §1

NCI-H1734 = test system: NCI-H1734
Outline: as §1

NCI-H2170 = test system: NCI-H2170
Outline: as §1

SMILES: COc1nc(C)cnc1NS(=O)(=O)c1cccnc1-c1ccc(-c2nnco2)cc1 [Zibotentan] + CCNC(=O)c1noc(-c2cc(C(C)C)c(O)cc2O)c1-c1ccc(CN2CCOCC2)cc1 [Luminespib] (partner 0.01 µM)
- relative viability (NCI-H1666; first compound 0.08 µM): 0.96
- relative viability (NCI-H1666; first compound 0.253 µM): 0.905
- relative viability (NCI-H1666; first compound 0.8 µM): 1.02
- relative viability (NCI-H1666; first compound 2.53 µM): 1.05
- relative viability (NCI-H441; first compound 0.08 µM): 0.41
- relative viability (NCI-H441; first compound 0.253 µM): 0.255
- relative viability (NCI-H441; first compound 0.8 µM): 0.345
- relative viability (NCI-H441; first compound 2.53 µM): 0.368
- relative viability (LK-2; first compound 0.08 µM): 0.216
- relative viability (LK-2; first compound 0.253 µM): 0.208
- relative viability (LK-2; first compound 0.8 µM): 0.168
- relative viability (LK-2; first compound 2.53 µM): 0.154
- relative viability (EKVX; first compound 0.08 µM): 0.762
- relative viability (EKVX; first compound 0.253 µM): 0.88
- relative viability (EKVX; first compound 0.8 µM): 0.832
- relative viability (EKVX; first compound 2.53 µM): 0.877
- relative viability (NCI-H1755; first compound 0.08 µM): 0.338
- relative viability (NCI-H1755; first compound 0.253 µM): 0.558
- relative viability (NCI-H1755; first compound 0.8 µM): 0.489
- relative viability (NCI-H1755; first compound 2.53 µM): 0.252
- relative viability (NCI-H23; first compound 0.08 µM): 0.199
- relative viability (NCI-H23; first compound 0.8 µM): 0.231
- relative viability (NCI-H23; first compound 2.53 µM): 0.186
- relative viability (SK-MES-1; first compound 0.08 µM): 1.05
- relative viability (SK-MES-1; first compound 0.253 µM): 0.788
- relative viability (SK-MES-1; first compound 0.8 µM): 0.818
- relative viability (SK-MES-1; first compound 2.53 µM): 0.83
- relative viability (NCI-H596; first compound 0.08 µM): 1.02
- relative viability (NCI-H596; first compound 0.253 µM): 0.939
- relative viability (NCI-H596; first compound 0.8 µM): 1.16
- relative viability (NCI-H596; first compound 2.53 µM): 1.03
- relative viability (SW 900; first compound 0.08 µM): 0.203
- relative viability (SW 900; first compound 0.253 µM): 0.174
- relative viability (SW 900; first compound 0.8 µM): 0.177
- relative viability (SW 900; first compound 2.53 µM): 0.172
- relative viability (NCI-H1975; first compound 0.08 µM): 0.305
- relative viability (NCI-H1975; first compound 0.253 µM): 0.0756
- relative viability (NCI-H1975; first compound 0.8 µM): 0.198
- relative viability (NCI-H1975; first compound 2.53 µM): 0.218
- relative viability (PC-3 [JPC-3]; first compound 0.08 µM): 0.692
- relative viability (PC-3 [JPC-3]; first compound 0.253 µM): 0.738
- relative viability (PC-3 [JPC-3]; first compound 0.8 µM): 0.774
- relative viability (PC-3 [JPC-3]; first compound 2.53 µM): 0.718
- relative viability (EMC-BAC-2; first compound 0.08 µM): 1.3
- relative viability (EMC-BAC-2; first compound 0.8 µM): 1.13
- relative viability (EMC-BAC-2; first compound 2.53 µM): 1.22
- relative viability (NCI-H1563; first compound 0.08 µM): 0.474
- relative viability (NCI-H1563; first compound 0.253 µM): 0.499
- relative viability (NCI-H1563; first compound 0.8 µM): 0.552
- relative viability (NCI-H1563; first compound 2.53 µM): 0.559
- relative viability (ChaGo-K-1; first compound 0.08 µM): 0.568
- relative viability (ChaGo-K-1; first compound 0.253 µM): 0.683
- relative viability (ChaGo-K-1; first compound 0.8 µM): 0.588
- relative viability (ChaGo-K-1; first compound 2.53 µM): 0.503
- relative viability (H3255; first compound 0.08 µM): 0.996
- relative viability (H3255; first compound 0.253 µM): 0.839
- relative viability (H3255; first compound 0.8 µM): 0.899
- relative viability (H3255; first compound 2.53 µM): 0.799
- relative viability (LOU-NH91; first compound 0.08 µM): 0.33
- relative viability (LOU-NH91; first compound 0.253 µM): 0.315
- relative viability (LOU-NH91; first compound 0.8 µM): 0.382
- relative viability (LOU-NH91; first compound 2.53 µM): 0.364
- relative viability (NCI-H520; first compound 0.08 µM): 0.206
- relative viability (NCI-H520; first compound 0.253 µM): 0.213
- relative viability (NCI-H520; first compound 0.8 µM): 0.242
- relative viability (NCI-H520; first compound 2.53 µM): 0.164
- relative viability (A-427; first compound 0.08 µM): 1.16
- relative viability (A-427; first compound 0.253 µM): 0.857
- relative viability (A-427; first compound 0.8 µM): 0.998
- relative viability (A-427; first compound 2.53 µM): 0.911
- relative viability (COR-L 105; first compound 0.08 µM): 0.938
- relative viability (COR-L 105; first compound 0.253 µM): 0.693
- relative viability (COR-L 105; first compound 0.8 µM): 0.891
- relative viability (COR-L 105; first compound 2.53 µM): 0.74
- relative viability (NCI-H1734; first compound 0.08 µM): 0.19
- relative viability (NCI-H1734; first compound 0.253 µM): 0.164
- relative viability (NCI-H1734; first compound 0.8 µM): 0.195
- relative viability (NCI-H1734; first compound 2.53 µM): 0.262
- relative viability (NCI-H2170; first compound 0.08 µM): 0.397
- relative viability (NCI-H2170; first compound 0.253 µM): 0.721
- relative viability (NCI-H2170; first compound 0.8 µM): 0.646
- relative viability (NCI-H2170; first compound 2.53 µM): 0.691
